Experimental data taken from patent EP0032304B1, “Antibiotic compositions” (ELI LILLY AND COMPANY, priority 1979, dated 1981).
Where a name gives a salt, the structure may show the parent alone. Read-outs that look alike come from different tables or passages of the source.

What was measured:
[1] = 28 day weight gain and feed utilization trial in post weaned pigs; assay type: in vivo; details: 28 days; for Daily feed intake (Rel) / Daily gain (Rel) / Feed efficiency (Rel) / Final weight (Rel): comparison to negative controls (100), 100 ppm in feed; for Daily feed intake x̄ (kg) per animal / Daily gain x̄ (g) per animal / Feed efficiency x̄ (kg feed/kg gain) / Final weight x̄ (kg) per animal: post weaned pigs, 100 ppm in feed (combination 100 ppm of each); for Final weight x̄ (kg) per animal: mean of two like trials
Description: The trials were carried out in pens with 6 pigs per pen for 28 days. The pigs were of mixed sex having an average initial body weight of 12.89 kg and an average age of six weeks. The animals received water before and after feeding. The animals were fed twice daily with feed having the following composition.
The tylosin-apramycin combination was compared in the trials with tylosin alone and with apramycin alone. The antibiotics and the combination thereof were administered in the animal feed at a level of 100 ppm, and, in the case of the combination; at 100 ppm for each antibiotic.

[2] = tested on: E. coli; test: 21 day trial in weanling pigs: treatment and control of colibacillosis, weight gain, feed efficiency, diarrhoea; assay type: in vivo; details: for Diarrhoea index: score 1 (formed stools only) to 5 (liquid stools only), scored twice daily for 13 days and once on the 14th day, 110 ppm in feed; for Percent increase over controls: Reduction of diarrhoea / Percent increase over controls: Average daily weight gain / Percent increase over controls: Improved feed efficiency / Average daily feed / Average daily gain / Feed efficiency: weanling pigs, 21 days; for Percent increase over controls: Reduction of diarrhoea: difference in incidence as percentage of the control incidence; for Percent increase over controls: Average daily weight gain / Percent increase over controls: Improved feed efficiency: vs non-treated control group; for Average daily feed / Average daily gain / Feed efficiency: tylosin phosphate and apramycin sulfate at 110 ppm in feed, combination 110 ppm of each
From the text: Tylosin and apramycin were each administered in the feed at a level of 110 ppm. The antibiotic combination was likewise administered in the feed containing both antibiotics at the 110 ppm level. The results are shown as a percentage increase over a non-treated control group as calculated from the statistical evaluation of the data obtained in the study.
The efficacy of the tylosin-apramycin combination in the treatment and control of colibacillosis is shown by the results obtained in a 21 day trial with weanling pigs. The pigs were divided by weight into treatment and control groups of eight pigs. Each treatment was randomly assigned to three groups. The animals were fed a normal ration ad libitum with the treatment groups receiving feed containing 110 ppm of each antibiotic. Weight gains, feed efficiency and the incidence of diarrhoea were used to measure the response to treatment.
Ninety-six weanling pigs averaging 6.0 kg in weight were randomly allocated by weight into 12 pens of 8 pigs per pen. Four treatments were used in the study as follows: 1) Non-medicated controls; 2) apramycin fed at 110 ppm; 3) tylosin phosphate fed at 110 ppm; and 4) apramycin sulfate and tylosin phosphate both fed at 110 ppm. Each treatment was replicated through three pens.
The pigs were fed for 21 days ad libitum a ration of 20% protein corn-soy meal with some rolled oats included for roughage. Vitamins and minerals were added as needed to balance the ration. The only difference in the rations fed to all pigs was the inclusion of the appropriate antibiotic or antibiotic combination in each of the medicated rations. All feed was weighed as fed, with the feed remaining at the end of the weigh period, weighed and discarded. The pigs were weighed at the initiation of the study and weekly thereafter.
Diarrhoea scores were maintained on a pen basis. The scoring was done by the same person on a twice daily schedule for the first 13 days and once only on the 14th day. The scoring index was the same as that shown in footnote 2 of Table 5.

[3] = tested on: P. hemolytica strain 41 D; test: In vitro MIC and checkerboard titration of the combination; assay type: cell-based, Pasturella hemolytica; details: antibiotic alone
Description: This organism can cause pneumonia in cattle which in cases of severe infection can lead to death. […] The synergistic activity of the combination of the two antibiotics was determined by the "checkerboard" titration method. In this method two antibiotics are tested in serial dilutions and in all combinations of these dilutions together to find the concentrations of each antibiotic, both alone and in combination, that inhibit growth of the test microorganism. The nature of the interaction between the two antibiotics may be determined algebraically or geometrically. In the algebraic method, the concentration of each antibiotic in the combination that inhibits growth is expressed as a fraction of the concentration that produces the same effect when the antibiotic is used alone. When the sum of these fractions is one, the combination is additive, when the sum is less than one, the combination is synergistic; and when the sum is greater than one, the combination is antagonistic.
Below are shown the calculations using data obtained in the in vitro test of tylosin, apramycin and the combination of the two antibiotics against P. hemolytica.

[4] = tested on: M. Hyorhinis HH; test: Minimal inhibitory concentration vs mycoplasma in contaminated LLC-MK2 tissue culture; assay type: cell-based, Mycoplasma hyorhinis; details: for MIC: Mesomycoplasma hyorhinis
Description: (§1) Suspensions of monkey kidney cells, LLC-MK2, in medium 199 (Morgan et al., Proc. Soc. Exp. Biol. Med, 73, 1 1950), were inoculated with cultures of the indicated mycoplasma to achieve an inoculum concentration of 1.5xlO' organisms/ml of cell suspension. Control cultures and the mycoplasma positive cultures included in each test were incubated at 37°C for 3-5 days. After incubation the medium in all cultures was changed to 1% horse serum in Medium 199 containing 1.68 g of sodium bicarbonates per liter. The tissue cultures innoculated with mycoplasma (except for mycoplasma positive control cultures) were then treated with the indicated individual antibiotics alone or with the combination of antibiotics shown in Table 1. When combinations of antibiotics were tested equal amounts of the antibiotics were used.
(§2) Solutions of the antibiotics were made up in Medium 199 containing 1.68 g of sodium bicarbonate per liter of medium. The solutions were sterile filtered through a millipore filter having a 0.2 µm porosity and were stored at 4°C prior to use. Two fold dilutions of the antibiotic solutions were made and each antibiotic solution was added to separate cultures to determine the minimal inhibitory concentration. The medium in each culture was changed twice a week with fresh antibiotic solution at the same concentration being added at each medium change. After two weeks, medium changes were made without antibiotic for two more weeks. Samples of the cultures were taken before each medium change in the last two weeks and were cultured to determine the presence of mycoplasma.
Cell suspensions of LLC-MK2 (Monkey kidney cell line) in Medium 199 containing 1% house serum of 4 ml volumes in tissue culture flasks were inoculated with a 3 day old culture of Mycoplasma hyorhinis (5 x 10^8 organism per ml in Eaton's broth). Approximately 2 to 3% of the mycoplasma culture per volume of the cell suspension was used. After inoculation the cell suspensions were incubated at a temperature of 37°C for from three to five days. Control cultures were also made up in the same manner. After incubation the medium in the control cultures and the mycoplasma positive cultures was replaced with fresh Medium 199 containing 1.68 g of sodium bicarbonate and 1% horse serum. The cultures were then treated with solutions of tylosin, tobramycin, and with the combination of tylosin and tobramycin in Medium 199 containing 1.68 g of sodium bicarbonate per liter. Solutions of each individual antibiotic and of the combination at a concentration of 1000 µg/ml were prepared. […] By two-fold serial dilution solutions at various concentrations down to 0.39 µg/ml were prepared. Each of the antibiotic solutions was added to a separate flask containing the tissue culture.
The tissue culture medium was replaced in each flask twice a week and at each medium change for two weeks a fresh solution of the antibiotic at the same concentration was added. After two weeks fresh medium replacements were made for two more weeks without the addition of antibiotic. Samples of each culture were taken before each medium replacement and were cultured to determine the presence of mycoplasma.

[5] = tested on: M. Hyorhinis; test: as above; assay type: cell-based; details: LLC-MK2 tissue culture contaminated with M. Hyorhinis, combinations contain equal amounts of each antibiotic
Description: as §1, §2
Cell suspensions of LLC-MK2 (Monkey kidney cell line) in Medium 199 containing 1% house serum of 4 ml volumes in tissue culture flasks were inoculated with a 3 day old culture of Mycoplasma hyorhinis (5 x 10^8 organism per ml in Eaton's broth). Approximately 2 to 3% of the mycoplasma culture per volume of the cell suspension was used. After inoculation the cell suspensions were incubated at a temperature of 37°C for from three to five days. Control cultures were also made up in the same manner. […]

[6] = tested on: M. gallisepticum 41313; test: as above; assay type: cell-based; details: Mycoplasmoides gallisepticum; LLC-MK2 tissue culture contaminated with M. gallisepticum 41313 (chicken mycoplasma); combinations contain equal amounts of each antibiotic
Description: as §1, §2

[7] = tested on: Swine L3F12F7; test: as above; assay type: cell-based; details: Mycoplasmopsis arginini; LLC-MK2 tissue culture contaminated with Swine L3F12F7 (mycoplasma isolated from swine); combinations contain equal amounts of each antibiotic
Description: as §1, §2

[8] = tested on: M. gallisepticum 36 F; test: as above; assay type: cell-based; details: LLC-MK2 tissue culture contaminated with M. gallisepticum 36 F (chicken mycoplasma), combinations contain equal amounts of each antibiotic
Description: as §1, §2

[9] = tested on: M. Hyorhinis HEK; test: as above; assay type: cell-based; details: Mesomycoplasma hyorhinis; LLC-MK2 tissue culture contaminated with M. Hyorhinis HEK (isolate from human embryonic kidney tissue); combinations contain equal amounts of each antibiotic
Description: as §1, §2

[10] = 110 ppm of each antibiotic in feed
[11] = LLC-MK2 tissue culture contaminated with M. Hyorhinis HH (isolate from human heart tissue), combinations contain equal amounts of each antibiotic, read-out: Minimal inhibitory concentration
[12] = LLC-MK2 tissue culture contaminated with M. Hyorhinis HH (isolate from human heart tissue), combinations contain equal amounts of each antibiotic

CN[C@@H]1[C@@H](O[C@H]2O[C@H](CO)[C@@H](N)[C@H](O)[C@H]2O)OC2C[C@@H](N)[C@@H](O[C@H]3[C@H](O)[C@@H](O)[C@H](N)C[C@@H]3N)OC2[C@@H]1O (stereo partly drawn) [Apramycin]
Daily feed intake (Rel) [1]: (100) percentage
Daily gain (Rel) [1]: (110) percentage
Feed efficiency (Rel) [1]: (92) percentage
Final weight (Rel) [1]: (102) percentage
Daily feed intake x̄ (kg) per animal [1]: 0,92 kg
Daily gain x̄ (g) per animal [1]: 467 g
Feed efficiency x̄ (kg feed/kg gain) [1]: 1,96 kg feed/kg gain
Final weight x̄ (kg) per animal [1]: 25,62 kg
Diarrhoea index [2]: 1.64
Percent increase over controls: Reduction of diarrhoea [2, 10]: 42.8%
Percent increase over controls: Average daily weight gain [2, 10]: 19.0%
Percent increase over controls: Improved feed efficiency [2, 10]: 10.3%
Average daily feed [2]: 0.47 kg
Average daily gain [2]: 0.29 kg
Feed efficiency [2]: 1.64
MIC [3]: 25 µg/mL
MIC [4, 11]: 600 µg/mL

CO[C@@H]1[C@@H](O[C@@H]2O[C@H](C)[C@@H](O[C@H]3C[C@@](C)(O)[C@@H](OC(=O)CC(C)C)[C@H](C)O3)[C@H](N(C)C)[C@H]2O)[C@@H](CC=O)C[C@@H](C)[C@@H](O)/C=C/C=C/C[C@@H](C)OC(=O)C[C@H]1O [Leucomycin]
Minimal inhibitory concentration [4, 12]: >400 µg/mL
MIC [4, 11]: 400 µg/mL

NC[C@H]1O[C@H](O[C@H]2[C@H](O)[C@@H](O[C@H]3O[C@H](CO)[C@@H](O)[C@H](N)[C@H]3O)[C@H](N)C[C@@H]2N)[C@H](N)[C@@H](O)[C@@H]1O [Nebramycin Factor 5]
Minimal inhibitory concentration [4, 12]: 200 µg/mL

CO[C@H]1C[C@H](O[C@H]2[C@H](C)[C@@H](O[C@@H]3O[C@H](C)C[C@H](N(C)C)[C@H]3O)[C@@H](C)C[C@@]3(CO3)C(=O)[C@H](C)[C@@H](O)[C@@H](C)[C@@H](C)OC(=O)[C@@H]2C)O[C@@H](C)[C@@H]1O [Oleandomycin]
MIC [4, 11]: 400 µg/mL

NCC1OC(OC2C(N)CC(N)C(OC3OC(CO)C(O)C(N)C3O)C2O)C(N)CC1O (stereo not drawn) [Tobramycin sulfate]
MIC [4, 11]: 200 µg/mL

NC[C@H]1O[C@H](O[C@H]2[C@H](O)[C@@H](O[C@H]3O[C@H](CO)[C@@H](O)[C@H](N)[C@H]3O)[C@H](N)C[C@@H]2N)[C@H](N)C[C@@H]1O [Tobramycin]
MIC ([5]; Mesomycoplasma hyorhinis): 100 µg/mL
MIC [6]: 200 µg/mL
MIC [7]: 50 µg/mL
MIC ([8]; Mycoplasmoides gallisepticum): 100 µg/mL
MIC [9]: > 500 µg/mL
MIC ([4]; Example 4, procedure of Example 1, LLC-MK2 tissue culture, read-out: MIC): 200 µg/mL

CC[C@H]1OC(=O)C[C@@H](O)[C@H](C)[C@@H](O[C@@H]2O[C@H](C)[C@@H](O[C@H]3C[C@@](C)(O)[C@@H](O)[C@H](C)O3)[C@H](N(C)C)[C@H]2O)[C@@H](CC=O)C[C@@H](C)C(=O)/C=C/C(C)=C/[C@@H]1CO[C@@H]1O[C@H](C)[C@@H](O)[C@@H](OC)[C@H]1OC [Tylosin]
Daily feed intake (Rel) [1]: (100) percentage
Daily gain (Rel) [1]: (106) percentage
Feed efficiency (Rel) [1]: (97) percentage
Final weight (Rel) [1]: (102) percentage
Daily feed intake x̄ (kg) per animal [1]: 0,92 kg
Daily gain x̄ (g) per animal [1]: 449 g
Feed efficiency x̄ (kg feed/kg gain) [1]: 2,07 kg feed/kg gain
Final weight x̄ (kg) per animal [1]: 25,58 kg
MIC [7]: 200 µg/mL
MIC [9]: > 200 µg/mL
mean diarrhoea scores vs time in days (incidence of diarrhoea) ([2]; plot in the accompanying drawing, 110 ppm of each antibiotic in feed): some effectiveness
Diarrhoea index [2]: 2.10
Percent increase over controls: Reduction of diarrhoea [2, 10]: 26.4%
Percent increase over controls: Average daily weight gain [2, 10]: 29.7%
Percent increase over controls: Improved feed efficiency [2, 10]: 11.4%
Average daily feed [2]: 0.51 kg
Average daily gain [2]: 0.31 kg
Feed efficiency [2]: 1.62
MIC [3]: 50 µg/mL
Minimal inhibitory concentration [4, 12]: 200 µg/mL

Gentamicin
Minimal inhibitory concentration [5]: 100 µg/mL

Magnamycin
Minimal inhibitory concentration [4, 12]: >800 µg/mL

Neomycin
Minimal inhibitory concentration [5]: 100 µg/mL

Spiromycin
Minimal inhibitory concentration [4, 12]: >800 µg/mL

Tylosin tartrate
Minimal inhibitory concentration [8]: >800 µg/mL
Minimal inhibitory concentration [4, 12]: 200 µg/mL
